The source made the active and inactive calls. The rule behind the calls is not given here.
What was measured:
Leishmania donovani [1] = experiment: Induction of apoptosis in antimony resistant Leishmania donovani BHU575 promastigotes at 5 uM measured after 6 to 24 hrs by FITC-Annexin V-based flow cytometric analysis; type: functional, organism-based; conditions: time 6-24 hrs
[2] = molecular target: T1, DNA topoisomerase I (Leishmania donovani (strain BPK282A1)) (UniProt E9BRC0); experiment: Inhibition of Leishmania donovani recombinant Top1 assessed as relaxation of supercoiled pBluescript SK(+) DNA at 5 uM incubated for 30 mins by agarose gel electrophoresis analysis relative to control
T1 sequence (whole entry): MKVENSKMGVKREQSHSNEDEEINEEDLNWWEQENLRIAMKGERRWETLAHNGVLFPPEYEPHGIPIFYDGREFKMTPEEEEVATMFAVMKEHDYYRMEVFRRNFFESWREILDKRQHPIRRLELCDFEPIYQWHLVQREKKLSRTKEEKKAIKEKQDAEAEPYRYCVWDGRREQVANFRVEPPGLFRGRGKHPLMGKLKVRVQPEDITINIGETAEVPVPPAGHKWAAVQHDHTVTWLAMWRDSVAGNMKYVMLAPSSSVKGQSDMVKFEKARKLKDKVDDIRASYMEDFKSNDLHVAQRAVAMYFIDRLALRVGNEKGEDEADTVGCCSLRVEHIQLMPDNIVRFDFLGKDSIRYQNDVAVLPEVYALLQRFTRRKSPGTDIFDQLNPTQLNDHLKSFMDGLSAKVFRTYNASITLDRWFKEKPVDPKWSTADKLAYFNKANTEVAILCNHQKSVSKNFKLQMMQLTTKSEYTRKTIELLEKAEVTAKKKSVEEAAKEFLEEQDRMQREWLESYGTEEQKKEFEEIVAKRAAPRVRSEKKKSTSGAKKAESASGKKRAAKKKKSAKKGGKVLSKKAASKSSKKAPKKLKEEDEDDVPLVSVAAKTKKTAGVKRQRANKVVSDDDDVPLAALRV

MCF7 = experiment: Induction of cell cycle arrest in human MCF7 cells measured at 5 uM upto 24 hrs by PI staining based flow cytometry; type: functional
[3] = molecular target: T1, DNA topoisomerase I (Leishmania donovani (strain BPK282A1)); experiment: Binding affinity to Leishmania donovani recombinant topoisomerase I assessed as stabilization of cleavage complex at 2.5 to 25 uM measured after 30 mins; conditions: dose 2.5-25 µM
Leishmania donovani [4] = experiment: (§1) Antileishmanial activity against Leishmania donovani Ag83 promastigotes infected in BALB/c mouse model of visceral leishmaniasis assessed as fold change in T-helper type 1 immunological evoke response in splenocytes by measuring decrease in TGF-beta level treated after 3 weeks of infection at 5 to 10 mg/kg, ip twice a week for 3 weeks by RT-PCR analysis; type: functional; conditions: dose 5-10 mg/kg
Leishmania donovani [5] = experiment: Induction of cell cycle arrest in Leishmania donovani Ag83 promastigotes assessed as decrease in accumulation of cells in G0/G1 phase at 5 uM measured after 12 hrs by PI staining based flow cytometry (reference value: 65.1%); type: functional; set-up: scale not given: the % may be the effect or the level left
Leishmania donovani [6] = experiment: Induction of cell cycle arrest in Leishmania donovani Ag83 promastigotes assessed as decrease in accumulation of cells in G2/M phase at 5 uM measured after 6 hrs by PI staining based flow cytometry (reference value: 15.1 %); type: functional; set-up: scale not given: the % may be the effect or the level left
Leishmania donovani [7] = experiment: Antileishmanial activity against Leishmania donovani Ag83 promastigotes infected in BALB/c mouse assessed as reduction of amastigote burden in liver treated after 3 weeks of infection at 5 to 10 mg/kg, ip twice a week for 3 weeks by Giemsa staining stamp-smear based limiting dilution assay; type: functional, organism-based; conditions: dose 5-10 mg/kg
Leishmania donovani [8] = experiment: Antileishmanial activity in Leishmania donovani Ag83 promastigotes assessed as persistent Top1cc-induced DNA breakdown by measuring TUNEL positive cells treated for 6 to 12 hrs followed by compound removal measured after 6 to 12 hrs by confocal microscopic analysis relative to camptothecin; type: functional, organism-based; conditions: time 6-12 hrs
DNA topoisomerase I [9] = molecular target: T2, DNA topoisomerase I (Leishmania donovani (strain BPK282A1), UniProt E9BRC0); experiment: Inhibition of Leishmania donovani Top1 assessed as relaxation of supercoiled pBluescript SK(+) DNA measured by agarose gel electrophoresis analysis
T2 sequence (E9BRC0 whole entry): T1 sequence (whole entry)

[10] = molecular target: T1, DNA topoisomerase I (Leishmania donovani (strain BPK282A1)); experiment: Binding affinity to antimony resistant Leishmania donovani BHU575 promastigotes recombinant topoisomerase I assessed as stabilization of cleavage complex at 5 to 50 uM measured after 30 mins; conditions: dose 5-50 µM
Leishmania donovani [11] = experiment: as §1, with “increased IL-12 cytokine” for “decrease in TGF-beta”; type: functional; conditions: dose 5-10 mg/kg
Leishmania donovani [12] = experiment: Induction of apoptosis in Leishmania donovani Ag83 promastigotes assessed as viable cells measured at 5 uM after 24 hrs by Annexin V-FITC/PI staining based flow cytometric analysis (reference value: 99.4%); type: functional
[13] = molecular target: T1, DNA topoisomerase I (Leishmania donovani (strain BPK282A1)); experiment: Inhibition of recombinant Top1 in Leishmania donovani Ag83 whole cell extract preincubated with compound for 5 mins followed by plasmid DNA addition at 5 to 20 uM measured after 30 mins; conditions: dose 5-20 µM
Leishmania donovani [14] = experiment: Induction of apoptosis in Leishmania donovani Ag83 promastigotes assessed as increase in apoptotic genomic DNA fragmentation measured at 5 uM after 6 hrs by Annexin V-FITC/PI staining based flow cytometric analysis; type: functional, organism-based
Leishmania donovani [15] = experiment: Antileishmanial activity against Leishmania donovani Ag83 amastigotes infected in BALB/c mouse macrophage assessed as cell viability measured after 48 hrs infection by propidium iodide staining analysis relative to control; type: functional, organism-based; conditions: Ag83, 48 h
Leishmania donovani [16] = experiment: Induction of cell cycle arrest in Leishmania donovani Ag83 promastigotes assessed as decrease in accumulation of cells in G0/G1 phase at 5 uM measured after 6 hrs by PI staining based flow cytometry (reference value: 65.1%); type: functional; set-up: scale not given: the % may be the effect or the level left
Leishmania donovani [17] = experiment: Induction of apoptosis in Leishmania donovani Ag83 promastigotes assessed as necrotic cells measured at 5 uM after 24 hrs by Annexin V-FITC/PI staining based flow cytometric analysis (reference value: 0.5%); type: functional
DNA topoisomerase I [18] = molecular target: T2, DNA topoisomerase I; experiment: (§2) Inhibition of recombinant Top1 in Antimony resistant Leishmania donovani BHU575 whole cell extract assessed as relaxation of supercoiled pBluescript SK(+) DNA measured by agarose gel electrophoresis analysis
[19] = molecular target: T1, DNA topoisomerase I (Leishmania donovani (strain BPK282A1)); experiment: as §2; conditions: dose 5-50 µM
Leishmania donovani [20] = experiment: Induction of cell cycle arrest in antimony resistant Leishmania donovani BHU575 promastigotes assessed as decrease in accumulation of cells in G2/M phase at 5 uM measured after 24 hrs by PI staining based flow cytometry (reference value: 8.8%); type: functional; set-up: scale not given: the % may be the effect or the level left
Leishmania donovani [21] = experiment: Induction of apoptosis in Leishmania donovani Ag83 promastigotes assessed as DNA break accumulation measured at 5 uM after 24 hrs by TUNEL staining based assay; type: functional, organism-based
[22] = Toxicity in BALB/c mouse infected with Antimony resistant Leishmania donovani BHU575 promastigotes assessed as change in body weight treated after 3 weeks of infection at 5 to 10 mg/kg, ip twice a week for 3 weeks; type: organism-based; conditions: in vivo, dose 5-10 mg/kg

COc1cc(-c2nc3ccccc3c3nc4ccccn4c23)cc(OC)c1OC
Activity (Leishmania donovani [1]): Active | inhibition [2]: 85% | Activity (MCF7): inactive | Activity [3]: Active | fold change (FC) (Leishmania donovani [4]): 2 | Activity (Leishmania donovani [5]): 40.7% | Activity (Leishmania donovani [6]): 27.7% | Activity (Leishmania donovani [7]): Active | Activity (Leishmania donovani [8]): Active | IC50 (DNA topoisomerase I [9]): 3.75 µM | Activity [10]: Active | fold change (FC) (Leishmania donovani [11]): 10 | Activity (Leishmania donovani [12]): 1.4% | inhibition [13]: inactive | Activity (Leishmania donovani [14]): Active | EC50 (Leishmania donovani [15]): 2.5 µM | Activity (Leishmania donovani [16]): 55.3% | Activity (Leishmania donovani [17]): 23.1% | IC50 (DNA topoisomerase I [18]): 8.75 µM | inhibition [19]: Dose-Dependent Effect | Activity (Leishmania donovani [20]): 33.6% | Activity (Leishmania donovani [21]): Active | Activity [22]: Non-Toxic

From ChEMBL document CHEMBL5316350, “Novel Pyrido[2',1':2,3]imidazo[4,5-c]quinoline Derivative Selectively Poisons Leishmania donovani Bisubunit Topoisomerase 1 to Inhibit the Antimony-Resistant Leishmania Infection in Vivo” (J Med Chem, 2023)
